Assay results from patent publication US20030236229A1 (priority 1996, published 2003).
Where a name gives a salt, the structure may show the parent alone.

Tested on: MDAY-D2 tumor cells
Experiment: not given
Conditions: viable MDAY-D2 tumor cells; cited from earlier work

For `CCCCCCCC(=O)OC1CN2CCCC(O)C2C1O` (stereo not shown) [2-octanoyloxy], the “activity as inhibitors of Golgi oligosaccharide processing” value (“activity as inhibitors” below) is given as “retained full activity”.
For `O=C(OC1CN2CCCC(O)C2C1O)c1ccc([N+](=O)[O-])cc1` (stereo not shown) [2-p-nitrobenzoyloxy], the “activity as inhibitors” value is listed as “retained full activity”.
For `CCCC(=O)OC1CN2CCCC(O)C2C1O` (stereo not shown) [2-butanoyloxy], the “activity as inhibitors” value is given as “retained full activity”.

Biological target: T1, lysosomal mannosidase (Homo sapiens, UniProt O00754)
T1 sequence (O00754 50-1011): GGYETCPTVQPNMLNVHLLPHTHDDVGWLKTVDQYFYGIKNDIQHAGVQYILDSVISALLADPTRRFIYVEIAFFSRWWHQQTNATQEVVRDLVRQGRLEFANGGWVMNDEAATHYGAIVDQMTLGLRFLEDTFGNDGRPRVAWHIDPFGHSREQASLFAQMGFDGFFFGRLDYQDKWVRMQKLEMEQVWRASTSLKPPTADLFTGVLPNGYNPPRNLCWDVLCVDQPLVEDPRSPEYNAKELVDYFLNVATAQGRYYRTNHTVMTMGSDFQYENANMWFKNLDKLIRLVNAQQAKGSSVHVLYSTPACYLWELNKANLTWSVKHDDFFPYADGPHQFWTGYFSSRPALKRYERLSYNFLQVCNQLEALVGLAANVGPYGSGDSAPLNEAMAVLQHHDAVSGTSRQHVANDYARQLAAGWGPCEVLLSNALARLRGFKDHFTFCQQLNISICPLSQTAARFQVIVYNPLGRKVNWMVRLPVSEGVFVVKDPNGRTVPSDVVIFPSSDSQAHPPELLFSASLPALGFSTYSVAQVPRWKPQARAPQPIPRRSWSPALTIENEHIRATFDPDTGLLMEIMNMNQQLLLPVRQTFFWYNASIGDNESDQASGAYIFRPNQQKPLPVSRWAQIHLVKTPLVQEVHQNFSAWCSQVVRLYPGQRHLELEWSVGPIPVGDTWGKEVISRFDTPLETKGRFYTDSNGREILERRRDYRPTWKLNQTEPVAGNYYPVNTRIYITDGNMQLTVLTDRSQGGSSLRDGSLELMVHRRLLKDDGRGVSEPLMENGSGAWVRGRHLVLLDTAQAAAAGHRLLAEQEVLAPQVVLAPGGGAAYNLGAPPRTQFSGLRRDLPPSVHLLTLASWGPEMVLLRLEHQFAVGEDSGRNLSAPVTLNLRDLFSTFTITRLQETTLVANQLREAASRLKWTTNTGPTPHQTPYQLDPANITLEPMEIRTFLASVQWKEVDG
Experiment: biochemical
Conditions: Lysosomal Mannosidase Activity (μM)
Procedure: (§1) 15 μl of α-mannosidase (Sigma 38 U/ml) was added to each well and the plates were incubated for 60 min at 37° C. The reaction was stopped by the addition of 50 μl of 0.5M sodium carbonate and formation of p-nitrophenol was measured with a plate set at […]. […] The reaction was stopped by the addition of 50 μl of 0.5M sodium carbonate and formation of p nitrophenol was measured with a plate set at 405.

With `O[C@H]1[C@H]2[C@H](O)CCCN2C[C@H]1O` [Swainsonine, reference compound] the IC50 was 0.08 ± 0.079 µM.

Same assay, conditions: sodium acetate pH 5.0, 60 min at 37° C., p-nitrophenol read at 405

For `OC1=C(O)N2CCC[C@@H](O)[C@H]2[C@@H]1O` [(1S,8R,8aS)-1,5,6,7,8,8a-Hexahydro-1,2,3,8-indolizinetetraol], the “Lysosomal Mannosidase Activity (μM)” value was “No detectable inhibition”.

Same assay, conditions: sodium acetate pH 5.0, 60 min at 37° C., p-nitrophenol read at 405; read-out: Lysosomal Mannosidase Activity

First: CCOC(=O)C1CC(O)C2C(O)C(O)CN2C1C [GD84, ethyl (5R,6R)-5-methylswainsonine-6-carboxylate]
Second: CCOC(=O)[C@H]1C[C@H](O)[C@@H]2[C@@H](O)[C@H](O)CN2[C@H]1C [GD 36, ethyl (1R,2R,5S,6S,8S,8aR)-1,2,8-trihydroxy-5-methyloctahydro-6-indolizinecarboxylate]
The IC50 of the first is 12-fold higher: 1500 ± 707 µM for the first, 120 ± 32.2 µM for the second. The second is the more potent here.

First: OC[C@H]1CC[C@@H](O)[C@@H]2[C@H](O)[C@H](O)CN12 [GD45, (5R)-5-(Hydroxymethyl)swainsonine]
Second: OC[C@@H]1CC[C@@H](O)[C@@H]2[C@H](O)[C@H](O)CN12 [GD 46, (5S)-5-(Hydroxymethyl)swainsonine]
The IC50 of the first is 2.1-fold lower: 0.705 ± 0.309 µM for the first, 1.48 ± 0.455 µM for the second.

Compared with `CC[C@H]1CC[C@@H](O)[C@@H]2[C@H](O)[C@H](O)CN12` [GD 38, (5S)-5-Ethylswainsonine], `CC1CCC(O)C2C(O)C(O)CN12` (single isomer, unassigned) [GD37] is 78-fold higher in IC50: 0.36 ± 0.313 µM for the first, 28.2 ± 7.85 µM for the second. The first is the more potent here.

First: O=C1[C@H](O)[C@@H](O)[C@@H]2[C@H](O)CCCN12 [GD 35, (1S,2R,8R,8aS)-1,2,8-Trihydroxyhexahydo-3(2II)-indolizinone]
Second: OCC1C(O)C(O)C2C(O)CCCN12 (stereo not shown) [EJH-4-264, 3-hydroxymethyl-swainsonine]
The IC50 of the first is 640-fold higher: 1090 µM for the first, 1.7 ± 0.5 µM for the second. The second is the more potent here.

Compared with `OC1CN2C(COCc3ccccc3)CCC(O)C2C1O` (single isomer, unassigned) [GD42], `CC1CCC(O)C2C(O)C(O)CN12` [GD19, (5R)-5-Methylswainsonine formate salt] is 8.8-fold higher in IC50: 0.164 ± 0.0491 µM for the first, 1.45 ± 0.071 µM for the second.

Compared with `OC1CN2C(COCc3ccccc3)CCC(O)C2C1O` (single isomer, unassigned) [GD 91], `CC1CCC(O)C2C(O)C(O)CN12` (single isomer, unassigned) [GD 28] is 10-fold lower in IC50: 3.23 ± 0.268 µM for the first, 0.316 ± 0.0759 µM for the second.

`OCC1C(O)C(O)C2C(O)CCCN12` (stereo not shown) [EJH-4-263, 3-hydroxymethyl-swainsonine] and `N#CC1C(O)[C@@H](O)C2[C@H](O)CCCN12` (stereo in doubt) [GD 92, (1S, 2S, 3R/S, 8R, 8aS)-3-cyano-1,2,8-Trihydroxyoctahydroindolizine] are within error of each other in IC50: 39.1 ± 16.3 µM for the first, 30.1 ± 1.2 µM for the second.

Going from `C[C@@H]1[C@H](CO)C[C@@H](O)[C@@H]2[C@H](O)[C@H](O)CN21` [GD44, (5R,6R)-6-Hydroxymethyl-5-methylswainsonine] to `C[C@H]1[C@@H](CO)C[C@@H](O)[C@@H]2[C@H](O)[C@H](O)CN21` [GD40, (5S,6S)-6-Hydroxymethyl-5-methylswainsonine], the IC50 rises from 24.5 ± 7.62 µM to 62.4 ± 17.9 µM (2.5-fold).

Molecule `CC1CCC(O)C2C(O)C(O)CN12` (single isomer, unassigned) [GD 20] has an IC50 of 2.3 ± 1.13 µM.

Biological target: T2, Golgi α-mannosidase II (Canavalia ensiformis, UniProt C0HJB3)
T2 sequence (C0HJB3 1-981): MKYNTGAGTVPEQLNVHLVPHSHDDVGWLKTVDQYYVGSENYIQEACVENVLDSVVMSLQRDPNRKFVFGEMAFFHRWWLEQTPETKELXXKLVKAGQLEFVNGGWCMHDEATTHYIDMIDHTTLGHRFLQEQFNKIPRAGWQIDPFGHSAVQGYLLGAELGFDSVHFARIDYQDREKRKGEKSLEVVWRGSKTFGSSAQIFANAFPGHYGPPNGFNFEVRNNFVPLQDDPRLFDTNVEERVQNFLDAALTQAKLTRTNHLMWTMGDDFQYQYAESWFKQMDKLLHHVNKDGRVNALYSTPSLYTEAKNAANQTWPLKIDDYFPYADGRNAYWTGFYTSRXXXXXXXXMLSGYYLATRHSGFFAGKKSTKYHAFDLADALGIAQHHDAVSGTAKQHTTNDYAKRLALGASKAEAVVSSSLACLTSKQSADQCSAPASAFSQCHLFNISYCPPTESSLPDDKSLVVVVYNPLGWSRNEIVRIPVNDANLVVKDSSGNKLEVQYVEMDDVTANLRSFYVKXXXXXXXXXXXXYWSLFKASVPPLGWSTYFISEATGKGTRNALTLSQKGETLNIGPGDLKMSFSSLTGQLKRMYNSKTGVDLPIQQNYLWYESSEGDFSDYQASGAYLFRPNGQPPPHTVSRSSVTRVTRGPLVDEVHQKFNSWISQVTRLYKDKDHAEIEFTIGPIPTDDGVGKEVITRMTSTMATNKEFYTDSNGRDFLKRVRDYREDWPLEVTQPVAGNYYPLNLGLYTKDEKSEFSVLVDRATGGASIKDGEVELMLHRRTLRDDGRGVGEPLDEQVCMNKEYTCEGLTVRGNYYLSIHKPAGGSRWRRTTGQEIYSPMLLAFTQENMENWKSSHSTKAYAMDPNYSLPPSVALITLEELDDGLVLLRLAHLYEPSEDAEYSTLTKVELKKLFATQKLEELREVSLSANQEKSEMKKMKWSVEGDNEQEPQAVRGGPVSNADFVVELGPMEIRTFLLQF
Experiment: not given
Format: biochemical
Conditions: sodium acetate pH 5.6, 60 min at 37° C., p-nitrophenol read at 405
Procedure: as §1

In the case of `OC1=C(O)N2CCC[C@@H](O)[C@H]2[C@@H]1O` [(1S,8R,8aS)-1,5,6,7,8,8a-Hexahydro-1,2,3,8-indolizinetetraol], the “MannoaidaseII Activity (μM)” value is reported as “No detectable”.

Same assay, conditions: sodium acetate pH 5.6, 60 min at 37° C., p-nitrophenol read at 405; read-out: MannoaidaseII Activity

First: O=C1[C@H](O)[C@@H](O)[C@@H]2[C@H](O)CCCN12 [GD 35, (1S,2R,8R,8aS)-1,2,8-Trihydroxyhexahydo-3(2II)-indolizinone]
Second: OCC1C(O)C(O)C2C(O)CCCN12 (stereo not shown) [EJH-4-263, 3-hydroxymethyl-swainsonine]
The IC50 of the first is 560-fold higher: 1030 µM for the first, 1.83 ± 1.3 µM for the second. The second is the more potent here.
